Data reported in patent publication US6664083B2, “Methods for racemizing N-acylamino acids and producing optically active amino acids” (Daichel Chemical Industries, Ltd., priority 2000, dated 2003).
Read-outs that look alike come from different tables or passages of the source.

Columns and labels:
Assay type in all cases: biochemical, Sebekia benihana
[1] = system: N-acylamino acid racemase; assay: Influence of inhibitors on N-acylamino acid racemase activity
Protocol: (§1) The activity of N-acylamino acid racemase was measured by the following method.
(§2) To this reaction solution, 50 μl of enzyme solution was added, and the 500 μl of the mixture was allowed to react for 5 minutes (or for several ten minutes if the activity was low) at 30° C., followed by heating at 100° C. for 3 minutes to stop the reaction. Subsequently, 3 U of L-amino acylase were added to the mixture, and incubated for 1 hour at 30° C. The mixture was then heated at 100° C. for 3 minutes to stop the reaction.
(§3) The amount of L-methionine produced was measured by TNBS method after the reaction was stopped. The enzyme activity was defined as 1 unit (U) when 1 μmole of N-acetyl-L-methionine was produced from N-acetyl-D-methionine in a minute.
Influence of various enzyme inhibitors on N-acylamino acid racemase was examined in the enzymatic activity assay in which each inhibitor was added to the reaction solution at the final concentration of 1 mM. The mixture was incubated for 10 minutes at 30° C., using the reaction solution without any inhibitors as a control. […] For EDTA, enzyme activity was measured at a final concentration of 5 mM as well as 1 mM.

[2] = system: N-acylamino acid racemase; assay: Influence of metal ions on N-acylamino acid racemase activity; settings: for Relative activity (%): metal ion 1 mM instead of cobalt chloride, 5 minutes at 30° C., activity in the presence of Co taken as 100
Protocol: as §1, §2, §3
Influence of various metal ions on N-acylamino acid racemase was examined in the enzymatic activity assay in which cobalt chloride (final concentration 1 mM) to be added was omitted from the reaction solution and instead each ion was added to the reaction at a final concentration of 1 mM. The mixture was incubated for 5 minutes at 30° C., and the amount of L-methionine produced was measured to determine the effect of each metal ion on the N-acylamino acid racemase, using the reaciton solution without any metal ions as a control. The enzyme activities were represented as relative activities, taking the activity in the presence of Co as 100.

[3] = system: N-acylamino acid racemase; assay: Substrate specificity of N-acylamino acid racemase (enzyme activity assay, TNBS method); settings: substrate 20 mM, 1 mM cobalt chloride, pH 7.5, 30° C.; activity on N-acetyl-D-methionine taken as 100
Protocol: The activity of N-acylamino acid racemase was measured by the following method. First, the following reaction solution was prepared. [table] […] Subsequently, 3 U of L-amino acylase were added to the mixture, and incubated for 1 hour at 30° C. The mixture was then heated at 100° C. for 3 minutes to stop the reaction. The amount of L-methionine produced was measured by TNBS method after the reaction was stopped. […] Substrate specificity was determined by measuring enzyme activities according to the above-mentioned enzyme assay, with varying the substrate in the reaction.

[4] = system: N-acylamino acid racemase; assay: Racemization of N-acetyltryptophan by N-acylamino acid racemase, optical purity by chiral HPLC; settings: 0.5% substrate, 1 U NAAR, pH 6.5, 30° C. overnight
Protocol: A reaction solution containing 100 mM potassium phosphate buffer (pH 6.5), 1 U of the N-acylamino acid racemase, and 0.5% N-acetyl-L-tryptophan or N-acetyl-D-tryptophan was incubated at 30° C. overnight. Racemization was verified by measuring optical purity of tryptophan in the reaction solution by HPLC. The optical purity of N-acetyltryptophan was determined as follows. N-acetyltryptophan was extracted from the reaction solution with methyl ethyl ketone. After the solvent was removed, the reaction product was resolved by liquid chromatography using an optical resolution column. The measurement was carried out at room temperature, using CHIRALPAK WH (DAICEL CHEMICAL INDUSTRIES, LTD.) as the optical resolution column, and aqueous solution of 0.25 mM cupric sulfate as eluent (flow rate, 1 ml/min; detection wavelength, 254 nm) to determine the quantity and optical purity. As a result, it was shown that N-acetyltryptophan produced from either N-acetyl-L-tryptophan or N-acetyl-D-tryptophan by the method of the present invention was a racemate with optical purity of nearly 0% ee at the end of the reaction.

[5] = inhibitor 1 mM, 10 minutes at 30° C., activity in the absence of inhibitors taken as 100

Compound: O[C@H](CS)[C@H](O)CS (racemic) [dithiothreitol]
- Relative activity (%) [1, 5]: 84%

Compound: O=C(NNc1ccccc1)NNc1ccccc1 [1,5-Diphenylcarbonohydrazide]
- Relative activity (%) [1, 5]: 68%

Compound: c1ccc(-c2ccccn2)nc1 [2,2′-Bipyridyl]
- Relative activity (%) [1, 5]: 55%

Compound: O.O.[Ba+2].[Cl-].[Cl-] [BaCl2.2H2O]
- Relative activity (%) [2]: 14%

Compound: O.O.[Ca+2].[Cl-].[Cl-] [CaCl2.2H2O]
- Relative activity (%) [2]: 12%

Compound: O.O.O.O.O.O.[Cl-].[Cl-].[Co+2] [CoCl2.6H2O]
- effect of metal ion on NAAR activity ([2]; 1 mM): effect of activation
- Relative activity (%) [2]: 100%

Compound: O.O.[Cl][Cu][Cl] [CuCl2.2H2O]
- Relative activity (%) [2]: 3%

Compound: O=C(O)CN(CCN(CC(=O)O)CC(=O)O)CC(=O)O [EDTA]
- Relative activity (%) [1, 5]: 10%
- Relative activity (%) ([1]; inhibitor 10 mM (table), 10 minutes at 30° C., activity in the absence of inhibitors taken as 100): 0%
- NAAR activity inhibited ([1]; result in words): inhibited

Compound: [Cl][Fe][Cl] [FeCl2.nH2O]
- Relative activity (%) [2]: 34%

Compound: O.O.O.O.O.O.[Cl-].[Cl-].[Cl-].[Fe+3] [FeCl3.6H2O]
- Relative activity (%) [2]: 6%

Compound: NN.O=S(=O)(O)O [Hydrazinium Sulfate]
- Relative activity (%) [1, 5]: 69%

Compound: NO [Hydroxylammonium chloride]
- Relative activity (%) [1, 5]: 88%

Compound: [Cl-].[K+] [KCl]
- Relative activity (%) [2]: 16%

Compound: [I-].[K+] [KI]
- Relative activity (%) [1, 5]: 97%

Compound: O.O.O.O.O.O.[Cl-].[Cl-].[Mg+2] [MgCl2.6H2O]
- Relative activity (%) [2]: 27%

Compound: O.O.O.O.[Cl][Mn][Cl] [MnCl2.4H2O]
- Relative activity (%) [2]: 60%

Compound: O=C(O)CI [Monoiodoacetic acid]
- NAAR activity inhibited [1]: inhibited
- Relative activity (%) [1]: 22%

Compound: CC(=O)N[C@H](C(=O)O)C(C)C [N-acctylvaline]
- Relative activity (%) [3]: 146%

Compound: CC(=O)N[C@H](Cc1c[nH]c2ccccc12)C(=O)O [N-acetyl-D-tryptophan]
- optical purity of N-acetyltryptophan at the end of the reaction [4]: ~0 % ee

Compound: CC(=O)N[C@@H](Cc1c[nH]c2ccccc12)C(=O)O [N-acetyl-L-tryptophan]
- optical purity of N-acetyltryptophan at the end of the reaction [4]: ~0 % ee

Compound: CC(=O)N[C@@H](C)C(=O)O [N-acetylalanine]
- Relative activity (%) [3]: 86%

Compound: CC(=O)N[C@@H](CC(=O)O)C(=O)O [N-acetylaspartic acid]
- Relative activity (%) [3]: 68%

Compound: CC(=O)N[C@@H](CC(C)C)C(=O)O [N-acetylleucine]
- Relative activity (%) [3]: 78%

Compound: CSCC[C@H](NC(C)=O)C(=O)O [N-acetylmethionine]
- Relative activity (%) [3]: 100%

Compound: CC(=O)N[C@@H](Cc1ccccc1)C(=O)O [N-acetylphenylalanine]
- Relative activity (%) [3]: 74%

Compound: CC(=O)N[C@@H](Cc1c[nH]c2ccccc12)C(=O)O [N-acetyltryptophan]
- Relative activity (%) [3]: 69%

Compound: CCN1C(=O)C=CC1=O [N-ethylmaleimide]
- Relative activity (%) [1, 5]: 96%

Compound: [Cl-].[Na+] [NaCl]
- Relative activity (%) [2]: 17%

Compound: [F-].[Na+] [NaF]
- Relative activity (%) [1, 5]: 94%

Compound: O.O.O.O.O.O.[Cl][Ni][Cl] [NiCl2.6H2O]
- Relative activity (%) [2]: 37%

Compound: O.O.[Cl][Sn][Cl] [SnCl2.2H2O]
- Relative activity (%) [2]: 9%

Compound: [Cl-].[Cl-].[Zn+2] [ZnCl2]
- Relative activity (%) [2]: 20%

Compound: O=C(O)c1cc[c]([Hg][Cl])cc1 [p-chloromercuribenzoic acid]
- Relative activity (%) [1, 5]: 11%
- NAAR activity inhibited ([1]; result in words): inhibited

Compound: O=S(=O)(F)Cc1ccccc1 [phenylmethanesulfonyl fluoride]
- Relative activity (%) [1, 5]: 84%

Compound: Al2(SO4)3.14˜18H2O
- Relative activity (%) [2]: 3%
